The series in a line: Solubility in xylenes. In kind it is physicochemical. The text has this:
A major advantage of alkoxymethylated melamine triazine UV absorbers of the present invention is not only their improved solubility, but also their improved compatibility with coatings resins compared to the corresponding triazine precursors. For example 2,4-bis(2,4-dimethylphenyl)-6-[2-hydroxy-4-(2-hydroxyethoxy)phenyl]-1,3-5-triazine is only soluble in xylenes to the extent of about 0.5%. […] Therefore Compound A is much easier to dissolve in high solids coating resin formulations than 2,4-bis(2,4-dimethylphenyl)-6-[2-hydroxy-4-(2-hydroxyethoxy)phenyl]-1,3-5-triazine, and overcomes the problem of cratering and poor weatherability of the final coatings due to undissolved UV absorber particles.

Regarding “2,4-bis(2,4-dimethylphenyl)-6-[2-hydroxy-4-(2-hydroxyethoxy)phenyl]-1,3-5-triazine [Compound a]”, the xylenes solubility result is “about 0.5%”.

The values are drawn from patent US20030065066A1, “Triazine UV absorbers comprising amino resins” (priority 1998, published 2003).
